Results taken from ChEMBL document CHEMBL5729070, “Substituted pyrrolo[1,2-a]pyrazines and pyrrolo[1,2-a][1,4]diazepines as TREX1 inhibitors” (2022).
pIC50: −log10 of the molar value.

Test: Exonuclease Assay: To evaluate the effect of compounds on TREX1 activity, test compounds were serially diluted (11-point, 3-fold) from 10 mM stock solutions and delivered to 384-well low-volume assay plates in 80 nL DMSO using an acoustic dispenser. Next, 4 μL of human TREX1 (0.5 nM), or murine TREX1 (1 nM), diluted in assay buffer (20 mM Tris pH 7.5, 5 mM MgCl2, 100 μg/mL BSA, 0.002% Triton X-100, 2 mM DTT), was added to the assay plate. After incubating for 30 minutes, 4 μL of labeled DNA oligonucleotide (500 nM) in assay buffer was added to initiate TREX1 exonuclease activity. The reaction was allowed to proceed for 45 minutes at room temperature prior to the addition of 4 μL of 150 mM EDTA to halt TREX1 activity. Assay plates were equilibrated for an additional 30 minutes and read on an EnVision Plate Reader (Perkin Elmer) to measure fluorescence emission at 535 nm following excitation at 485 nm. Fluorescence was plotted as a function of log molar compound concentration and fit to four-parameter dose-response equation to determine compound IC50.

Structure (SMILES) | pIC50 | IC50
CC(C)C[C@H](C(=O)NCc1ccc(Cl)c(Cl)c1)N1CCC(C=[S+](C)([O-])c2ccccc2)N2C[C@H](N)C[C@H]2C1=O (some centres not stated) | > 6.00 | 
CC(C)C[C@H](NC(=O)Cc1ccc(Cl)c(Cl)c1)N1CCC(CCc2ccccc2)N2C[C@H](N)C[C@H]2C1=O (some centres not stated) |  | in the range around 5.5 µM
